{
  "source": "patent US20240299321A1",
  "about": "“METHODS TO SENSITIZE CANCER CELLS AND STANDARDIZED SCREENING ASSAY FOR IMMUNOTHERAPY” (THE TRUSTEES OF INDIANA UNIVERSITY, priority 2020, published 2024)",
  "key": {"[1]": {"system": "NY-ESO-1+ MDA-MB-468 cells", "assay": "HLA presentation on NY-ESO-1+ MDA-MB-468 cells (flow cytometry, confocal)", "assay_type": "cell-based, human", "conditions": "for HLA-A2 antigen presentation (confocal images): 1 μM, 48 h, FIG. 4F; for HLA levels on MDA-MB-468 cells (MFI): flow cytometry", "procedure": "(§1) Flow Cytometry: Sample acquisition was done using LSR Fortessa X-20 or LSR Fortessa (BD Biosciences) and data were analyzed using FlowJo v10.6.0 software. Live/dead cells were assessed using SYTOX Blue (Invitrogen, Dilution 1:100). For cell staining involving cell permeabilization, the BD cytofix/cytoperm fixation permeabilization kit (BD Biosciences) was used. The PBS buffer containing 0.5% BSA and 10% FBS were used to dilute antibodies. The antibodies used in flow cytometrical analyses include: […] The compensation was performed using CompBeads for negative control (BD Biosciences), anti-mouse Ig,κ (BD Biosciences), anti-rat Ig,κ and anti-hamster Ig,κ (BD Biosciences). The beads were stained with the corresponding antibodies separately under the same conditions as the cells were stained in each experiment. SYTOX Blue reagent was used to stain dead cells. Half of the live cells were incubated at 60° C. for 2 min to enable membrane permeable and then mixed with the other half incubated at 37° C. The mixed cells were stained with SYTOX Blue for 15 mins and used for compensation. For all the data analysis, doublet exclusion was performed and only single cells were analyzed. Dead cell populations were also excluded from analysis if the experiment were not involved in cell killing. One million events per sample were collected for immune profiling analysis in the animal experiments. For all in vitro experiments, at least ten thousand events per sample were collected for flow cytometry analysis. Confocal Microscopy: OVA+ EO771 and NY-ESO-1+ MDA-MB-468 cells were seeded at 5×10^3 cell/well in the 8-well slide (Millicell EZ slide, […]) and treated with 1 μM drug (GSK-LSD1, CUDC-101 or BML-210) for 48 h. FITC-conjugated anti-mouse H-2Kb antibody (Biolegend, dilution 1:50) and FITC-conjugated anti-HLA-A2 (Biolegend, dilution 1:50) were used to stain OVA+ EO771 and NY-ESO-1+ MDA-MB-468 cells, respectively, for 2 h. For cell nucleus staining, cells were incubated with 0.5% Triton X-100/PBS for 10 min and stained with DAPI (Sigma-Aldrich, dilution 1:100) for 15 min. The slides were rinsed in PBS twice and mounted with ProLong Gold anti-fade mountant (Invitrogen, P36930). Fluorescence images were captured using Leica TCS SP8 (upright high speed multiphoton) confocal imaging system. 3-D images were analyzed by the Imaris x64 8.1.2 software."}, "[2]": {"system": "EO771 (Luc+OVA+) tumor organoids", "assay": "Toxicity on tumor organoids without T cells (WST-1 viability)", "assay_type": "cell-based, mouse", "conditions": "no T cells", "procedure": "Tumor cell viability assay: For 2D tumor cell culture, tumor cells were seeded into 96 well plates at 2,000 cells per well and cultured for 72 h. For tumor organoids, tumor organoids with diameter between 70 and 150 μm were seeded at 50 organoids per well into 96-well microplates with ultra-low attachment surface (Corning). Cells or tumor organoids were treated with indicated compound at the final concentration of 1 μM. After 3-day culture, tumor organoids were dissociated into single cells using TrypLE Express (Corning) at 37° C. with a shaking velocity of 500 rpm on a thermomixer (Eppendorf) for 15 min. The 96-well microplates were added with 10 μl/well of Premix WST-1 reagent (TaKaRa) and incubated for 1 h. The microplates were read at absorbance of 450 nm on the Epoch microreader (BioTek). The toxicity of the epigenetic drugs was quantified using the premix WST-1 reagent according to the manufacturer's protocol."}, "[3]": {"system": "NY-ESO-1+ MDA-MB-468 cells", "assay": "NY-ESO-1+ MDA-MB-468 organoid and NY-ESO-1-specific CD8+ T cell co-culture cytotoxicity", "assay_type": "cell-based, human", "conditions": "MDA-MB-468/CAF organoids; FIG. 2C", "procedure": "Breast tumor organoid culture: Single cells isolated from EO771-derived tumors in tumor-bearing C57BL/6 mice were suspended into cold mouse breast cancer culture medium containing 10% Matrigel (Corning) with a concentration of 2×10^5 cells ml^−1. The cells (2 ml) were seeded into each well of pre-warmed 6-well microplate with ultra-low attachment surface (Corning) and cultured at 37° C. with 5% CO2. The same volume of fresh culture medium was added every other day. After 7-day culture, tumor organoids were collected using cell strainers with pore size of 70 and 150 μm. For human tumor organoid culture, 2 ml of NY-ESO-1+ MDA-MB-468 cells with a concentration of 2×10^5 cells ml-1 were seeded into each well of the prewarmed 6-well microplate with ultra-low attachment surface. The cells were cultured for two days to generate tumor spheroids. The resulting spheroids were mixed with cancer associated fibroblasts (CAFs) with a ratio of 2:1 (tumor cells versus CAFs) and cultured in the human breast cancer organoid culture medium3 for 5 days. Finally, the MDA-MB-468 tumor organoids with diameter of 70˜150 μm were used for co-culture with NY-ESO-1-specific human CD8+ T cells (ASTARTE Biologics). Patient-derived organoids (PDOs) were cultured following the same procedures as mouse EO771 tumor organoids using human breast cancer organoid culture medium.\nCytotoxicity of CD8+ T cells in the co-culture with tumor organoids We generated mouse EO771 (Luc+OVA+) cell line that presents OVA257-264 antigen (from chicken ovalbumin) and human MDA-MB-468 (NY-ESO-1+) cell line that presents NY-ESO-1 antigen for use in the T cell-mediated cytotoxicity assay. OVA-specific CD8+ T cells were isolated from the spleen of OT-I mouse that contains transgenic inserts of Tcra-V2 and Tcrb-V5 genes. The transgenic T cell receptor can recognize the ovalbumin peptide SIINFEKL (OVA257-264; SEQ ID NO: 55). […] The cells were co-cultured for 24 h and subject to further analyses, such as optical and fluorescence imaging, luciferase assay or flow cytometry."}, "OVA+ EO771 cells": {"system": "OVA+ EO771 cells", "assay": "H-2Kb presentation on OVA+ EO771 cells (flow cytometry, confocal)", "assay_type": "cell-based, mouse", "conditions": "for H-2Kb antigen presentation (confocal images): 1 μM, 48 h, FIG. 4E; for H-2Kb levels on EO771 cells (MFI): flow cytometry", "procedure": "as §1"}},
  "data": [
    {"smiles": "c1ccc([C@@H]2C[C@H]2NC2CCNCC2)cc1", "note": "[GSK-LSD1]", "values": [
      {"measurement": "HLA-A2 antigen presentation (confocal images)", "setting": "[1]", "result": "boosted up the antigen presentation"},
      {"measurement": "HLA levels on MDA-MB-468 cells (MFI)", "setting": "[1]", "result": "increased"},
      {"measurement": "effect on the tumor organoids in the absence of T cells", "setting": "[2]", "result": "no notable effect"},
      {"measurement": "T cell-mediated cytotoxicity", "setting": "[3]", "result": "pronouncedly induced"},
      {"measurement": "H-2Kb antigen presentation (confocal images)", "setting": "OVA+ EO771 cells", "result": "boosted up the antigen presentation"},
      {"measurement": "H-2Kb levels on EO771 cells (MFI)", "setting": "OVA+ EO771 cells", "result": "increased"}
    ]},
    {"smiles": "C#Cc1cccc(Nc2ncnc3cc(OC)c(OCCCCCCC(=O)NO)cc23)c1", "note": "[CUDC-101]", "values": [
      {"measurement": "HLA-A2 antigen presentation (confocal images)", "setting": "[1]", "result": "boosted up the antigen presentation"},
      {"measurement": "HLA levels on MDA-MB-468 cells (MFI)", "setting": "[1]", "result": "increased"},
      {"measurement": "effect on the tumor organoids in the absence of T cells", "setting": "[2]", "result": "no notable effect"},
      {"measurement": "T cell-mediated cytotoxicity", "setting": "[3]", "result": "pronouncedly induced"},
      {"measurement": "H-2Kb antigen presentation (confocal images)", "setting": "OVA+ EO771 cells", "result": "boosted up the antigen presentation"},
      {"measurement": "H-2Kb levels on EO771 cells (MFI)", "setting": "OVA+ EO771 cells", "result": "increased"}
    ]},
    {"smiles": "Nc1ccccc1NC(=O)CCCCCCC(=O)Nc1ccccc1", "note": "[BML-210]", "values": [
      {"measurement": "HLA-A2 antigen presentation (confocal images)", "setting": "[1]", "result": "boosted up the antigen presentation"},
      {"measurement": "HLA levels on MDA-MB-468 cells (MFI)", "setting": "[1]", "result": "much higher levels"},
      {"measurement": "effect on the tumor organoids in the absence of T cells", "setting": "[2]", "result": "no notable effect"},
      {"measurement": "T cell-mediated cytotoxicity", "setting": "[3]", "result": "pronouncedly induced"},
      {"measurement": "H-2Kb antigen presentation (confocal images)", "setting": "OVA+ EO771 cells", "result": "boosted up the antigen presentation"},
      {"measurement": "H-2Kb levels on EO771 cells (MFI)", "setting": "OVA+ EO771 cells", "result": "much higher levels"}
    ]}
  ]
}
